Assay results from PubChem BioAssay (NCI).
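Cultured in 96-well plates, cells were exposed to test compound for 48 hours across five concentrations. GI50 marks 50% less growth. The concentration for full growth arrest is given as TGI.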

Experiments:
Assay in all cases: NCI-60 cell line screen, 48 h
[1] = test system: 786-0 renal
[2] = test system: A498 renal
[3] = test system: A549 NSCLC
[4] = test system: ACHN renal
[5] = test system: BT-549 breast
[6] = test system: CAKI-1 renal
[7] = test system: CCRF-CEM leukemia
[8] = test system: COLO 205 colon
[9] = test system: DU-145 prostate
[10] = test system: EKVX NSCLC
[11] = test system: HCC-2998 colon
[12] = test system: HCT-116 colon
[13] = test system: HCT-15 colon
[14] = test system: HL-60(TB) leukemia
[15] = test system: HOP-62 NSCLC
[16] = test system: HOP-92 NSCLC
[17] = test system: HS 578T breast
[18] = test system: HT29 colon
[19] = test system: IGROV1 ovarian
[20] = test system: K-562 leukemia
[21] = test system: KM12 colon
[22] = test system: LOX IMVI melanoma
[23] = test system: M14 melanoma
[24] = test system: MALME-3M melanoma
[25] = test system: MCF7 breast
[26] = test system: MDA-MB-231 breast
[27] = test system: MDA-MB-435
[28] = test system: MDA-MB-468 breast
[29] = test system: MOLT-4 leukemia
[30] = test system: NCI-H226 lung
[31] = test system: NCI-H23 lung
[32] = test system: NCI-H460 lung
[33] = test system: NCI-H522 lung
[34] = test system: OVCAR-3 ovarian
[35] = test system: OVCAR-4 ovarian
[36] = test system: OVCAR-5 ovarian
[37] = test system: OVCAR-8 ovarian
[38] = test system: PC-3 prostate
[39] = test system: RXF 393 renal
[40] = test system: SF-268 CNS
[41] = test system: SF-295 CNS
[42] = test system: SF-539 CNS
[43] = test system: SK-MEL-2 melanoma
[44] = test system: SK-MEL-28 melanoma
[45] = test system: SK-MEL-5 melanoma
[46] = test system: SK-OV-3 ovarian
[47] = test system: SN12C renal
[48] = test system: SNB-19 CNS
[49] = test system: SNB-75 CNS
[50] = test system: SR leukemia
[51] = test system: SW-620 colon
[52] = test system: T-47D breast
[53] = test system: TK-10 renal
[54] = test system: U251 CNS
[55] = test system: UACC-257 melanoma
[56] = test system: UACC-62 melanoma
[57] = test system: UO-31 renal

`O=C(/C=C/c1ccccc1)c1nc2ccccc2n1Cc1ccc(F)cc1` showed a GI50 [1] of 1.82 µM, a TGI [1] of 3.49 µM and a GI50 [2] of 18.5 µM. For the same molecule, the TGI [2] was 33.1 µM, the GI50 [3] was 4.82 µM and the TGI [3] was 21.1 µM. The GI50 [4] was 3.66 µM, the TGI [4] was 12.6 µM and the GI50 [5] was 2.54 µM. For the same molecule, the TGI [5] was 7.59 µM, the GI50 [6] was 2.97 µM and the TGI [6] was 12.5 µM. It also gave a GI50 [7] of 4.43 µM, a TGI [7] greater than 100 µM and a GI50 [8] of 3.18 µM. It also gave a TGI [8] of 7.86 µM, a GI50 [9] of 3.67 µM and a TGI [9] of 14.2 µM. For the same molecule, the GI50 [10] was 4.86 µM, the TGI [10] was 17 µM and the GI50 [11] was 1.83 µM. It also gave a TGI [11] of 3.91 µM, a GI50 [12] of 1.92 µM and a TGI [12] of 3.84 µM. It also gave a GI50 [13] of 1.75 µM, a TGI [13] of 3.66 µM and a GI50 [14] of 2.44 µM. For the same molecule, the TGI [14] was 12.4 µM, the GI50 [15] was 3.93 µM and the TGI [15] was 12.6 µM. The GI50 [16] was 4.03 µM, the TGI [16] was 20.4 µM and the GI50 [17] was 4.76 µM. It also gave a TGI [17] of 47.6 µM, a GI50 [18] of 3.26 µM and a TGI [18] of 9.14 µM. It also gave a GI50 [19] of 2.33 µM, a TGI [19] of 5.89 µM and a GI50 [20] of 3.1 µM. For the same molecule, the TGI [20] was greater than 100 µM, the GI50 [21] was 2.18 µM and the TGI [21] was 5.01 µM. It also gave a GI50 [22] of 1.62 µM, a TGI [22] of 3.1 µM and a GI50 [23] of 3.17 µM. The TGI [23] was 11.4 µM, the GI50 [24] was 3.52 µM and the TGI [24] was 14.5 µM. The GI50 [25] was 1.77 µM, the TGI [25] was 6.02 µM and the GI50 [26] was 1.98 µM. It also gave a TGI [26] of 4.17 µM, a GI50 [27] of 2.23 µM and a TGI [27] of 5.92 µM. For the same molecule, the GI50 [28] was 1.92 µM, the TGI [28] was 3.73 µM and the GI50 [29] was 3.16 µM. For the same molecule, the TGI [29] was greater than 100 µM, the GI50 [30] was 13.8 µM and the TGI [30] was 34.4 µM. It also gave a GI50 [31] of 2.66 µM, a TGI [31] of 8.6 µM and a GI50 [32] of 2.14 µM. The TGI [32] was 5.38 µM, the GI50 [33] was 2.42 µM and the TGI [33] was 5.85 µM. The GI50 [34] was 2 µM, the TGI [34] was 4.14 µM and the GI50 [35] was 11.1 µM. It also gave a TGI [35] of 28.6 µM, a GI50 [36] of 3.31 µM and a TGI [36] of 11.6 µM. The GI50 [37] was 2.56 µM, the TGI [37] was 6.88 µM and the GI50 [38] was 4.13 µM. It also gave a TGI [38] of 26.7 µM, a GI50 [39] of 1.56 µM and a TGI [39] of 3 µM. It also gave a GI50 [40] of 7.22 µM, a TGI [40] of 30.2 µM and a GI50 [41] of 3.19 µM. The TGI [41] was 10.8 µM, the GI50 [42] was 2.01 µM and the TGI [42] was 4.18 µM. The GI50 [43] was 5.11 µM, the TGI [43] was 17.1 µM and the GI50 [44] was 2.18 µM. For the same molecule, the TGI [44] was 5.25 µM, the GI50 [45] was 3.49 µM and the TGI [45] was 14.4 µM. It also gave a GI50 [46] of 18.9 µM, a TGI [46] of 45.5 µM and a GI50 [47] of 3.7 µM. For the same molecule, the TGI [47] was 13.8 µM, the GI50 [48] was 2.13 µM and the TGI [48] was 5.76 µM. It also gave a GI50 [49] of 1.72 µM, a TGI [49] of 10.9 µM and a GI50 [50] of 2.99 µM. It also gave a TGI [50] greater than 100 µM, a GI50 [51] of 2.15 µM and a TGI [51] of 4.45 µM. For the same molecule, the GI50 [52] was 2.71 µM, the TGI [52] was 12.1 µM and the GI50 [53] was 2.9 µM. It also gave a TGI [53] of 10.4 µM, a GI50 [54] of 1.62 µM and a TGI [54] of 3.19 µM. It also gave a GI50 [55] of 4.1 µM, a TGI [55] of 17 µM and a GI50 [56] of 2.42 µM. For the same molecule, the TGI [56] was 10.4 µM, the GI50 [57] was 1.77 µM and the TGI [57] was 4.21 µM.
